From the supplement of paper PMC10307832

Legend:
Assay in all cases: relative viability (nuclei count vs DMSO), 5 days (fraction); higher = more cells survive
[1] = compound: CC[C@@H](C)CNCC(=O)N1CCC2=C([C@@H]1COC3=CC=CC(=C3)C)C=CS2 [RU-SKI 43] + O=C(c1cc(Cc2n[nH]c(=O)c3ccccc23)ccc1F)N1CCN(C(=O)C2CC2)CC1 [Olaparib] (partner 8 µM)
Outline: (§1)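 After 5 days of treatment, lung cancer cells in 1536-well plates were fixed and stained in a single step (final 0.05% Triton X-100, 1% formaldehyde, 1 ug/ml Hoechst) and their nuclei counted on 4× images. Treatment had been applied by pin tool the day after seeding as one drug alone or as a fixed anchor-drug dose with five library-drug doses (not always all listed) in √10 steps. Relative viability is the nuclei count of treated wells divided by that of vehicle wells, and values are medians of duplicate plates.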

[2] = compound: CCc1c2c(nc3ccc(OC(=O)N4CCC(N5CCCCC5)CC4)cc13)-c1cc3c(c(=O)n1C2)COC(=O)[C@]3(O)CC [Irinotecan] + CC(=O)Nc1cccc(-n2c(=O)n(C3CC3)c(=O)c3c(Nc4ccc(I)cc4F)n(C)c(=O)c(C)c32)c1 [Trametinib] (partner 0.02 µM)
Outline: as §1

[3] = compound: Cn1cc(-c2cnc3ccc4ccc(CS(=O)(=O)NCc5ccccn5)cc4c(=O)c3c2)cn1 [MK-8033] + CS(=O)(=O)CCNCc1ccc(-c2ccc3ncnc(Nc4ccc(OCc5cccc(F)c5)c(Cl)c4)c3c2)o1 [Lapatinib] (partner 2 µM)
Outline: as §1

[4] = compound: Cn1cc(-c2cnc3ccc4ccc(CS(=O)(=O)NCc5ccccn5)cc4c(=O)c3c2)cn1 [MK-8033] + Cc1nc(Nc2ncc(C(=O)Nc3c(C)cccc3Cl)s2)cc(N2CCN(CCO)CC2)n1 [Dasatinib] (partner 0.075 µM)
Outline: as §1

UMC-11
relative viability ([1]; first compound 0.1 µM): 0.397 | relative viability ([1]; first compound 0.3162 µM): 0.418 | relative viability ([1]; first compound 1 µM): 0.399 | relative viability ([1]; first compound 3.162 µM): 0.383 | relative viability ([1]; first compound 10 µM): 0.273 | relative viability ([2]; first compound 0.6325 µM): 0.32 | relative viability ([2]; first compound 2 µM): 0.539 | relative viability ([2]; first compound 6.325 µM): 0.29 | relative viability ([2]; first compound 20 µM): 0.216 | relative viability ([3]; first compound 0.02 µM): 1.02 | relative viability ([3]; first compound 0.06325 µM): 0.522 | relative viability ([3]; first compound 0.2 µM): 0.866 | relative viability ([3]; first compound 0.6325 µM): 1.04 | relative viability ([3]; first compound 2 µM): 0.944 | relative viability ([4]; first compound 0.02 µM): 0.448 | relative viability ([4]; first compound 0.06325 µM): 0.378 | relative viability ([4]; first compound 0.2 µM): 0.421 | relative viability ([4]; first compound 2 µM): 0.413
